From PubChem BioAssay AID1259407 (Chemical Carcinogenesis Research Information System (CCRIS), 2018)
Activity calls are given as the source filed them. No rule for the calls is given here.

Tested on: CCRIS mutagenicity, Ames/micronucleus/aberration tests
Experiment: CCRIS mutagenicity studies
[1] = Test System: AMES SALMONELLA TYPHIMURIUM, Strain/Indicator: TA98, Metabolic Activation: NONE, Method: PREINCUBATION
[2] = Test System: AMES SALMONELLA TYPHIMURIUM, Strain/Indicator: TA98, Metabolic Activation: NONE, Method: STANDARD PLATE
[3] = Test System: AMES SALMONELLA TYPHIMURIUM, Strain/Indicator: TA98, Metabolic Activation: RAT, LIVER, S-9, AROCLOR 1254, Method: PREINCUBATION
[4] = Test System: AMES SALMONELLA TYPHIMURIUM, Strain/Indicator: TA98, Metabolic Activation: RAT, LIVER, S-9, AROCLOR 1254, Method: STANDARD PLATE
[5] = Test System: AMES SALMONELLA TYPHIMURIUM, Strain/Indicator: TA100, Metabolic Activation: NONE, Method: STANDARD PLATE
[6] = Test System: AMES SALMONELLA TYPHIMURIUM, Strain/Indicator: TA100, Metabolic Activation: RAT, LIVER, S-9, AROCLOR 1254, Method: PREINCUBATION
[7] = Test System: AMES SALMONELLA TYPHIMURIUM, Strain/Indicator: TA100, Metabolic Activation: RAT, LIVER, S-9, AROCLOR 1254, Method: STANDARD PLATE
[8] = Test System: AMES SALMONELLA TYPHIMURIUM, Strain/Indicator: TA100, Metabolic Activation: NONE, Method: PREINCUBATION
[9] = Test System: AMES SALMONELLA TYPHIMURIUM, Strain/Indicator: TA1535, Metabolic Activation: NONE, Method: PREINCUBATION

O=c1cc(CO)occ1O
mutagenic call (End Point: IN VIVO MICRONUCLEUS, Test System: HEPATOCYTES, Species: RAT, Strain/Sex: FISHER 344 OR SD/MALE, Route: ORAL OR IP): inactive; negative
mutagenic call (End Point: IN VIVO MICRONUCLEUS, Test System: PERIPHERAL BLOOD RETICULOCYTES, Species: RAT, Strain/Sex: FISHER 344 OR SD/MALE, Route: ORAL OR IP): active; positive
mutagenic call (End Point: In vivo micronucleus, Test System: Mononucleated hepatocytes/1000 hepatocytes, Species: Mouse, Strain/Sex: Ddy/Male, Route: Oral): active; positive (dose related increase, significant only at high dose)
mutagenic call (End Point: In vivo micronucleus, Test System: Mononucleated hepatocytes/1000 hepatocytes, Species: Rat, Strain/Sex: F344/Male, Route: Oral): active; positive (dose related increase, significant only at high dose)
mutagenic call [1]: active; positive
mutagenic call [2]: active; positive
mutagenic call [3]: active; positive
mutagenic call [4]: active; positive
mutagenic call [5]: active; positive
mutagenic call (Test System: AMES SALMONELLA TYPHIMURIUM, Strain/Indicator: TA100, Metabolic Activation: RAT, LIVER, MICROSOMES, PHENOBARBITAL, Method: STANDARD PLATE): active; positive
mutagenic call [6]: inactive; negative
mutagenic call [7]: active; positive
mutagenic call (Test System: AMES SALMONELLA TYPHIMURIUM, Strain/Indicator: TA100, Metabolic Activation: RAT, LIVER, S-9, PHENOBARBITAL, Method: PREINCUBATION): inactive; negative
mutagenic call (Test System: Ames Salmonella typhimurium, Strain/Indicator: TA100, Metabolic Activation: None, Method: Preincubation): active; positive
mutagenic call (Test System: Ames Salmonella typhimurium, Strain/Indicator: TA100, Metabolic Activation: Rat, Liver, S-9, Phenobarbital and 6-naphthoflavone, Method: Preincubation): active; positive

CCCCCCCCOC[N+](C)(C)Cc1ccccc1
mutagenic call (Test System: BACILLUS SUBTILIS, Strain/Indicator: H17/REC, Metabolic Activation: NONE, Method: STANDARD PLATE): inactive; negative
mutagenic call (Test System: BACILLUS SUBTILIS, Strain/Indicator: M45, Metabolic Activation: NONE, Method: STANDARD PLATE): inactive; negative

COC(=O)Nc1nc2ccc(C(=O)c3ccc(F)cc3)cc2[nH]1
mutagenic call [2]: inactive; negative
mutagenic call [4]: inactive; negative
mutagenic call [5]: inactive; negative
mutagenic call [7]: inactive; negative

O=[N+]([O-])c1cccc2c(Cl)nsc12
mutagenic call [5]: active; positive

CCCCc1ccc(N=Cc2ccc(OC)cc2)cc1
mutagenic call [1]: inactive; negative
mutagenic call (Test System: AMES SALMONELLA TYPHIMURIUM, Strain/Indicator: TA100, Metabolic Activation: HAMSTER, LIVER, S-9, AROCLOR 1254 (30%), Method: PREINCUBATION): active; positive
mutagenic call [8]: inactive; negative
mutagenic call (Test System: AMES SALMONELLA TYPHIMURIUM, Strain/Indicator: TA100, Metabolic Activation: RAT, LIVER, S-9, AROCLOR 1254 (30%), Method: PREINCUBATION): inactive; negative

CCc1cc(O)cc2c3c([nH]c12)C(CC)(CC(=O)O)OCC3 (stereo not drawn)
mutagenic call [2]: active; positive
mutagenic call (Test System: AMES SALMONELLA TYPHIMURIUM, Strain/Indicator: TA98, Metabolic Activation: RAT, LIVER, S-9 (10 OR 50 µL/PLATE), Method: STANDARD PLATE): inactive; negative
mutagenic call [5]: inactive; negative
mutagenic call (Test System: AMES SALMONELLA TYPHIMURIUM, Strain/Indicator: TA100, Metabolic Activation: RAT, LIVER, S-9 (10 OR 50 µL/PLATE), Method: STANDARD PLATE): inactive; negative
mutagenic call (Test System: AMES SALMONELLA TYPHIMURIUM, Strain/Indicator: TA1535, Metabolic Activation: NONE, Method: STANDARD PLATE): inactive; negative
mutagenic call (Test System: AMES SALMONELLA TYPHIMURIUM, Strain/Indicator: TA1535, Metabolic Activation: RAT, LIVER, S-9 (10 OR 50 µL/PLATE), Method: STANDARD PLATE): inactive; negative
mutagenic call (Test System: AMES SALMONELLA TYPHIMURIUM, Strain/Indicator: TA1537, Metabolic Activation: NONE, Method: STANDARD PLATE): inactive; negative
mutagenic call (Test System: AMES SALMONELLA TYPHIMURIUM, Strain/Indicator: TA1537, Metabolic Activation: RAT, LIVER, S-9 (10 OR 50 µL/PLATE), Method: STANDARD PLATE): inactive; negative
mutagenic call (Test System: E. COLI, Strain/Indicator: WP2 UVRA, Metabolic Activation: NONE, Method: STANDARD PLATE): inactive; negative
mutagenic call (Test System: E. COLI, Strain/Indicator: WP2 UVRA, Metabolic Activation: RAT, LIVER, S-9 (10 OR 50 µL/PLATE), Method: STANDARD PLATE): inactive; negative

C=CC(O)C=C
mutagenic call [1]: inactive; negative
mutagenic call (Test System: AMES SALMONELLA TYPHIMURIUM, Strain/Indicator: TA98, Metabolic Activation: S-9, Method: PREINCUBATION): inactive; negative
mutagenic call [8]: inactive; negative
mutagenic call (Test System: AMES SALMONELLA TYPHIMURIUM, Strain/Indicator: TA100, Metabolic Activation: S-9, Method: PREINCUBATION): active; positive
mutagenic call [9]: inactive; negative
mutagenic call (Test System: AMES SALMONELLA TYPHIMURIUM, Strain/Indicator: TA1535, Metabolic Activation: S-9, Method: PREINCUBATION): inactive; negative
mutagenic call (Test System: E.COLI, Strain/Indicator: WP2UVRA/PKM101, Metabolic Activation: NONE, Method: PREINCUBATION): inactive; negative
mutagenic call (Test System: E.COLI, Strain/Indicator: WP2UVRA/PKM101, Metabolic Activation: S-9, Method: PREINCUBATION): inactive; negative

O=c1[nH]c(=O)n([C@H]2C[C@H](O)[C@@H](CO)O2)cc1I
mutagenic call (Test System: AMES SALMONELLA TYPHIMURIUM, Strain/Indicator: TA97, Metabolic Activation: NONE, Method: PREINCUBATION): inactive; negative
mutagenic call (Test System: AMES SALMONELLA TYPHIMURIUM, Strain/Indicator: TA97, Metabolic Activation: RAT, LIVER, S-9, AROCLOR 1254, Method: PREINCUBATION): inactive; negative
mutagenic call [1]: inactive; negative
mutagenic call [3]: inactive; negative
mutagenic call [8]: inactive; negative
mutagenic call [6]: inactive; negative
mutagenic call (Test System: AMES SALMONELLA TYPHIMURIUM, Strain/Indicator: TA102, Metabolic Activation: NONE, Method: PREINCUBATION): inactive; negative
mutagenic call (Test System: AMES SALMONELLA TYPHIMURIUM, Strain/Indicator: TA102, Metabolic Activation: RAT, LIVER, S-9, AROCLOR 1254, Method: PREINCUBATION): inactive; negative
mutagenic call (Test System: AMES SALMONELLA TYPHIMURIUM, Strain/Indicator: TA104, Metabolic Activation: NONE, Method: PREINCUBATION): inactive; negative
mutagenic call (Test System: AMES SALMONELLA TYPHIMURIUM, Strain/Indicator: TA104, Metabolic Activation: RAT, LIVER, S-9, AROCLOR 1254, Method: PREINCUBATION): inactive; negative
mutagenic call [9]: inactive; negative
mutagenic call (Test System: AMES SALMONELLA TYPHIMURIUM, Strain/Indicator: TA1535, Metabolic Activation: RAT, LIVER, S-9, AROCLOR 1254, Method: PREINCUBATION): inactive; negative
mutagenic call (Test System: AMES SALMONELLA TYPHIMURIUM, Strain/Indicator: TA1537, Metabolic Activation: NONE, Method: PREINCUBATION): inactive; negative
mutagenic call (Test System: AMES SALMONELLA TYPHIMURIUM, Strain/Indicator: TA1537, Metabolic Activation: RAT, LIVER, S-9, AROCLOR 1254, Method: PREINCUBATION): inactive; negative
mutagenic call (Test System: AMES SALMONELLA TYPHIMURIUM, Strain/Indicator: TA1538, Metabolic Activation: NONE, Method: PREINCUBATION): inactive; negative
mutagenic call (Test System: AMES SALMONELLA TYPHIMURIUM, Strain/Indicator: TA1538, Metabolic Activation: RAT, LIVER, S-9, AROCLOR 1254, Method: PREINCUBATION): inactive; negative
mutagenic call (Test System: CHINESE HAMSTER V-79, Strain/Indicator: V-79/8-AZAGUANINE, Metabolic Activation: NONE): active; positive
mutagenic call (Test System: UDS RODENT HEPATOCYTES, Strain/Indicator: THY INCORP, Metabolic Activation: NONE): inactive; negative

Cc1ccc(NCC2(O)OC[C@@H](O)[C@@H](O)[C@@H]2O)cc1 (stereo partly drawn)
mutagenic call (Test System: AMES SALMONELLA TYPHIMURIUM, Strain/Indicator: TA100, Metabolic Activation: NONE, Method: LIQUID INCUBATION): inactive; negative
